Assay results taken from publication PMC7890489, “Study on pharmacological properties and cell absorption metabolism of novel daidzein napsylates” (Royal Society Open Science, 2021).
Values after ≈ are worked out from the molar mass of the structure shown. Values joined by “and” are separate entries in the source; they are usually repeats but may differ in a detail not shown here. Equal entries are not always repeated. Where two headings read alike, the source gives them in different places.

How the values were obtained:
[1] = system: human aortic vascular smooth muscle cells (HAVSMCs); test: Cell metabolism in HAVSMCs by HPLC-MS; format: in vitro ADME; settings: for metabolite identified (chemical name): HAVSMC lysate, 24 h incubation, HPLC-MS negative ion mode; for metabolites found in cell lysate: HAVSMCs incubated 24 h, HPLC-MS, also found in supernatant; for redox products in HAVSMCs: preliminary analysis of metabolic components
Method: (§1) HAVSMCs were obtained from resuscitation in cryopreservation tubes. HAVSMCs at passages 3–10 were seeded at a density of 10^5 in 6-well plates, 2 ml per well. The cells were cultured at 37°C in a 5% carbon dioxide incubator for 24 h to adhere to the cell wall; cells were cultured in serum-free DMEM for 24 h. The cells were synchronized, the supernatant was carefully aspirated and different concentrations of drug solution were added to the DMEM culture medium containing 10% serum. Equal amounts of DMEM culture medium without drugs were added to the blank group. Each group was set up in triplicate and further cultured. The cultures were terminated at 0.5, 1, 6, 12, 24 or 48 h. Cell culture supernatants were collected and stored at −80°C for further analysis.
Mobile phase: methanol-formic acid (1 : 1); flow rate: 0.5 ml min^−1; injection volume: 10 µl; wavelength: 254 nm; column temperature: 25°C.
A triple quadrupole tandem precision mass spectrometer (Agilent 6430) with an […] source and a negative ion mode was used for precise determination. The full mass spectrum data were obtained in the range of m/z 50–1000. The optimal mass spectrum parameters were as follows: the capillary voltage was 4.0 kV; the injection cone voltage was 35 V; the desolvation gas flow (N2) rate was 900 l h^−1; the injection cone gas flow (N2) rate was 50 l h^−1; the desolvation temperature was 350°C; the ion source temperature was 150°C; the collision gas in collision induced dissociation (CID) mode was helium with high purity; the inlet pressure was set at 40 psi; the CID collision energy of the standard was 5–35 eV and the cracking voltage was 135 V.
The cell supernatant was thawed and vortexed for 0.5 min. Cell supernatant (50 µl) and […] (50 µl) were added to a 2 ml centrifuge tube and vortexed for 3 min. Ammonium dihydrogen phosphate (100 µl, 0.4%) and 1 ml of ethyl acetate were added, and the sample was vortexed for 3 min. The mixture was centrifuged at 3000 r min^−1 for 10 min. The supernatant (95 µl) was aspirated and dried by N2 flow. […] (500 µl) was added and the sample was vortexed for 0.5 min. After filtration over a 0.45 µm organic membrane, HPLC-MS analysis was carried out.
Cells from the −80°C stock were thawed at room temperature, and 1 ml of thawed cell lysate was added into each well of a 6-well plate. From each group, 0.5 ml of cell lysate was taken; 50 µl of […], 100 µl of ammonium dihydrogen phosphate (0.4%) and 1 ml of ethyl acetate were added and samples were vortexed for 3 min. Lysate (95 µl) was aspirated and dried by N2 flow. […] (500 µl) was added and samples were vortexed for 0.5 min. After filtration over a 0.45 µm organic membrane, HPLC-MS analysis was carried out.

[2] = system: human aortic vascular smooth muscle cells (HAVSMCs); test: Drug absorption in human aortic vascular smooth muscle cells (HPLC of cell supernatant); format: in vitro ADME; settings: for value (drug concentration in cell supernatant): dosing DD4 171, DD5 120 ug/mL; for maximum cell absorption rate relative to DAI: compared with DAI; for absorptivity (maximum absorption rate): maximum (at 1 h)
Method: as §1
Cell supernatants were thawed at room temperature and vortexed for 1 min. To 50 µl of the cell supernatant, 50 µl of methanol was added and the mixtures were mixed uniformly by eddy current. Ethyl acetate (1 ml) was added to the mixture and vortexed for 3 min. Ethyl acetate was separated by cooled centrifugation at 3000 r min^−1 and dried with nitrogen, and the residue was dissolved in 500 µl of methanol before injection for analysis.
Mobile phase: methanol-phosphoric acid solution (0.4%) (1 : 1); flow rate: 0.5 ml min^−1; injection volume: 10 µl; wavelength: 230 nm or 254 nm; column temperature 25°C.
Cell supernatants were thawed and vortexed for 1 min. Drug-added supernatant (50 µl) was treated by the same method as the pre-treatment of cell samples described in §4.2.
The absorption and utilization rates of DD4 and DD5 were calculated by the formula (6.1), with the reduction of drug concentration in the cell culture medium taken as the absorption amount of drug by cells. The initial drug concentration was c0, and the concentration in the cell supernatant at other time points is denoted as c. […] With increasing time, the cell absorption rate of the drug was maintained at about 60%. The main reason for the differences in absorption of DD4 and DD5 might be the length of the substituent group (methyl, ethyl) on the 7-position:6.1 absorption rate=c0−c/c0×100%.

[3] = system: vascular smooth muscle cells; test: Cytotoxicity by MTT assay; format: cell-based; settings: 300 ug/mL
Source text: […] 2) Please list the full name of “HAVSMCs”at the first time it appears.
We have listed the full name of “HAVSMCs” as its first appearance in the abstract of […]
[…] 3) Please number the carbon atoms of the compounds.
[…] 4) Line 19-36: The abstract can reflect all aspects of the work, but it is a bit long and too detailed. The authors should rephrase the abstract for a more concise […]
We have rewritten the section of abstract and tried to make it as concise as possible.
[…] 5) As far as I'm aware, daidzein as a biologically active natural product has been used for curing angiocardiopathy. But whether the synthesized daidzeinnapsylates have significant toxic side effects remain unknown. So, in vitro cytotoxicity […]
A549, HeLa cells) need be performed.
The cytotoxicity of DD4 and DD5 was determined by MTT assay in our lab before […]
the two compounds was less than 10% at the concentration of 300 ug/mL. It is considered that the compound is not toxic to vascular smooth muscle cells at this concentration. Therefore, the dosing concentrations of DD4 and DD5 were 171 and 120 ug/mL, respectively, to investigate the absorption and metabolism of drugs by […]
6)Please attach the 1H-NMR specturm of DD4 and DD5 in supporting information;

[4] = Apparent lipid-water (n-octanol/water) partition coefficient by HPLC; format: physicochemical; design: key: —: Cannot be detected; settings: for lgP: 37 °C, HPLC of aqueous phase; for apparent lipid-hydro partition coefficient found: HPLC
Method: (§2) Mobile phase: acetonitrile-methanol (1 : 1); flow rate: 1.0 ml min^−1; injection volume: 20 µl; wavelength: 230 nm or 254 nm; column temperature: 25°C.
DD4 (5.1 mg) was dissolved in 50 ml of water-saturated n-octanol solution to prepare a solution with a concentration of 102 mg l^−1. Solution (2 ml) and water-saturated n-octanol solution (2 ml) were added to a plugged 10 ml tube. The prepared sample solution was placed in a shaker and shaken to equilibrium overnight in the dark at constant temperature (37 ± 0.1)°C. The lower aqueous phase was taken and analysed by HPLC after centrifugation at a speed of 3000 r min^−1 for 10 min. The drug concentration in the aqueous phase (ρw) was calculated via the standard curve according to the peak area. DD5 (4.5 mg) was dissolved in 50 ml of water-saturated n-octanol solution to prepare a solution with a concentration of 90 mg l^−1. Other methods were the same as those for DD4 [14].

[5] = Solubility in water, methanol, cyclohexane and ethyl acetate by HPLC; format: physicochemical
Method: as §2
Five millilitres of water, methanol, cyclohexane and ethyl acetate was added to test tubes, and then samples (DD4 or DD5) were added. These solutions were shaken at constant temperature (37 ± 0.1)°C for 48 h. The supernatant was taken to determine its solubility with HPLC [14]. Solutions of tested sample beyond the linear concentration range were diluted with methanol for determination.

[6] = Solubility in water, methanol, cyclohexane and ethyl acetate by HPLC; format: physicochemical; settings: organic solvent or mixture, thermodynamic from solid, head: hexane (text: cyclohexane), 37 °C, shaken 48 h
[7] = design: method as in ref 23 = [23]; 23 Zhang ZT , Liu QG , Liu XH , Yang BL , Duan YF , Gao ZW , Yu KB 2002 Synthesis, crystal structure and biological activity of monomethylated daidzein sulfonates . Acta Chim. Sinica 60 , 1846 – 1853; settings: compared with DAI; cited from earlier work
[8] = water with a pH of 7.8; cited from earlier work
[9] = at pH 7.4, 410 K, DAI ref 16, cited from earlier work
[10] = cited from earlier work
[11] = design: method as in ref 9 = [9]; 9 Chou F 2005 Pharmacokinetics of daidzein and its precursors . Shenyang, People's Republic of China : Shenyang Pharmaceutical University .; settings: rats, intragastric administration of DAI solution; cited from earlier work
[12] = design: key: —: Cannot be detected; settings: DAI ref 14; cited from earlier work
[13] = organic solvent or mixture, thermodynamic from solid, methanol, 37 °C, shaken 48 h, HPLC, read-out: solubility methanol
[14] = thermodynamic from solid, water, 37 °C, shaken 48 h, HPLC, read-out: solubility water
[15] = water, Table 5, read-out: solubility in water

## CCOc1ccc2c(=O)c(-c3ccc(OS(=O)(=O)c4ccc5ccccc5c4)cc3)coc2c1 [DD5]
[1]; metabolite DAI
  metabolite identified (chemical name): daidzein
[1]; metabolite M2
  metabolite identified (chemical name): daidzein-4'-naphthalene sulphonate
[1]; metabolite M4 or/and M4a
  metabolite identified (chemical name): daidzein-4'-glucoside or daidzein-7-glucoside
[1]; metabolite M5
  metabolite identified (chemical name): 7-ethyldaidzein
[1]; metabolite M6
  metabolite identified (chemical name): daidzein-7-ethyl-4'-glucoside
[1]; metabolite M7
  metabolite identified (chemical name): daidzein-7-ethyl-4'-sulphonic acid
[1]
  metabolites found in cell lysate: Six metabolites were found
  redox products in HAVSMCs: no redox products
[2]
  time of peak (maximum) absorption: 1 h
  maximum cell absorption rate relative to DAI: 4.5 times and 4.3–4.5 times
  absorptivity (maximum absorption rate): 90.34%
[2]; 0.5 h
  value (drug concentration in cell supernatant): 88.31 ± 4.25 µg/mL
[2]; 1 h
  value (drug concentration in cell supernatant): 11.59 ± 0.08 µg/mL
[2]; 6 h
  value (drug concentration in cell supernatant): 44.60 ± 3.91 µg/mL
[2]; 12 h
  value (drug concentration in cell supernatant): 47.13 ± 15.99 µg/mL
[2]; 24 h
  value (drug concentration in cell supernatant): 50.34 ± 1.31 µg/mL
[2]; 48 h
  value (drug concentration in cell supernatant): 29.29 ± 2.50 µg/mL
[3]
  cell inhibition rate: less than 10%
[4]
  lgP: —^b
  apparent lipid-hydro partition coefficient found: —^b
[5]; [13]
  solubility at 48 h: 2470 ± 72.4 µg/mL (≈ 5230 µM)
[5]; [14]
  solubility at 48 h: < 0.059 µg/mL
[5]; water, 37 °C
  solubility in water: too poor to be detected
[5]; [15]
  solubility at 48 h: < 0.059 µg/mL
other
  melting point: 151 to 153 °C
[6]
  solubility at 48 h: 69.7 ± 20.8 µg/mL (≈ 148 µM)

## sodium daidzein sulphonate
[7]
  anti-hypoxic-ischaemic effect: obviously better than that of DAI

## O=C(O)COc1ccc(-c2coc3cc(OCCO)ccc3c2=O)cc1 [4-oxoacetic acid-7-hydroxyethoxy-daidzein]
[8]
  solubility in water: 54.28 µg/mL (≈ 152 µM)

## COc1ccc2c(=O)c(-c3ccc(OS(=O)(=O)c4ccc5ccccc5c4)cc3)coc2c1 [DD4]
[1]
  metabolite identified (chemical name): daidzein-4'-naphthalene sulphonate
  metabolites found in cell lysate: Four metabolites were found
  redox products in HAVSMCs: no redox products
[2]
  time of peak (maximum) absorption: 1 h
  maximum cell absorption rate relative to DAI: 4.3 times and 4.3–4.5 times
  absorptivity (maximum absorption rate): 87.97%
[2]; 0.5 h
  value (drug concentration in cell supernatant): 96.97 ± 15.57 µg/mL
[2]; 1 h
  value (drug concentration in cell supernatant): 20.62 µg/mL and 20.62 ± 0.71 µg/mL
[2]; 6 h
  value (drug concentration in cell supernatant): 110.70 ± 4.98 µg/mL
[2]; 12 h
  value (drug concentration in cell supernatant): 82.48 ± 3.00 µg/mL
[2]; 24 h
  value (drug concentration in cell supernatant): 71.01 ± 34.97 µg/mL
[2]; 48 h
  value (drug concentration in cell supernatant): 111.28 ± 1.72 µg/mL
[3]
  cell inhibition rate: less than 10%
[4]
  lgP: —^b
  apparent lipid-hydro partition coefficient found: —^b
[5]; ethyl acetate, 37 °C, shaken 48 h, HPLC, read-out: solubility ethanoate (ethyl acetate)
  solubility at 48 h: 36300 µg/mL (≈ 79200 µM)
[5]; [13]
  solubility at 48 h: 824 ± 19.3 µg/mL (≈ 1800 µM)
[5]; [14]
  solubility at 48 h: < 0.059 µg/mL
[5]; water, 37 °C
  solubility in water: too poor to be detected
[5]; [15]
  solubility at 48 h: < 0.059 µg/mL
other
  melting point: 144 to 156 °C
[6]
  solubility at 48 h: 509 ± 49 µg/mL (≈ 1110 µM)

## O=c1c(-c2ccc(O)cc2)coc2cc(O)ccc12 [DAI, 4′, 7-dihydroxyisoflavone]
[9]
  dissociation constant (percentage of drug prototypes) calculated value: 10.41%
  molecular polar surface area/two-dimensional calculated value: 66.76 Å^2
  molecular surface area/three-dimensional calculated value: 315.07 Å^2
  polarizability calculated value: 26.21
  refractivity calculated value: 69.70
[9]; first figure of site/count
  H-bond accepter site: 5
[9]; second figure of site/count
  H-bond accepter count: 4
[10]; Table 5, DAI ref 16
  solubility in ethyl acetate: 0.13 ± 0.11 µg/mL (≈ 0.511 µM)
[10]; cyclohexane, DAI ref 14
  solubility in cyclohexane: could not be determined
[10]; water, DAI ref 14
  solubility in water: too poor to be detected
[11]
  absolute bioavailability calculated on the basis of free DAI: 12.8%
[12]
  lgP: —^b
